Tests used:
OGG1 = OGG1 (Homo sapiens (Human), UniProt O15527); assay: In vitro OGG1 activity assay; format: biochemical; settings: 800 pM OGG1 enzyme, 2 nM human APEX1, 10 nM 8-oxoA:C substrate
How it was run: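 Fluorescence-release assay on a duplex oligonucleotide carrying an OGG1 substrate base beside a fluorophore, quenched from the complementary strand. Excess APEX1 cleaves the abasic site left by base excision, melting the duplex and unquenching the fluorophore. Compounds in DMSO were dispensed before enzyme and substrate, and fluorescein signal was read.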

MLE12 cells = assay: Cell viability assay in MLE12 cells (resazurin); format: cell-based, mouse; settings: Mus musculus, MLE12, 24 h, TNF-α 20 ng/ml, resazurin added after 24 hours culture
How it was run: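 MLE12 cells (7500 cells/well) were seeded onto 11-point duplicate compound dose-responses, with TNF-α (final 20 ng/ml) added after 1 hour at 37° C. After 24 hours, resazurin was added for 6 hours and resorufin fluorescence read (ex544 nm/em595 nm). EC50 values were calculated by curve fitting.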

CCL2 = assay: Mouse CCL2 assay in MLE12 cells; format: cell-based; settings: Mus musculus, MLE12, 30 h, MLE12 cells; TNF-α 20 ng/ml; supernatant after 30 hours; HTRF; read-out: CCL2 (EC50)
How it was run: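 MLE12 mouse lung epithelial cells (7500/well, DMEM/F12 with 5% FBS) preincubated 1 h with compounds (6-point dose-response, duplicate), then stimulated with TNF-α (final 20 ng/ml) for 30 h at 37 °C. Secreted CCL2 measured by HTRF sandwich immunoassay (Ex330/Em620, 665 nm) against standard curve; IC50 from delta ratios.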

OGG1, sequence (O15527 whole entry): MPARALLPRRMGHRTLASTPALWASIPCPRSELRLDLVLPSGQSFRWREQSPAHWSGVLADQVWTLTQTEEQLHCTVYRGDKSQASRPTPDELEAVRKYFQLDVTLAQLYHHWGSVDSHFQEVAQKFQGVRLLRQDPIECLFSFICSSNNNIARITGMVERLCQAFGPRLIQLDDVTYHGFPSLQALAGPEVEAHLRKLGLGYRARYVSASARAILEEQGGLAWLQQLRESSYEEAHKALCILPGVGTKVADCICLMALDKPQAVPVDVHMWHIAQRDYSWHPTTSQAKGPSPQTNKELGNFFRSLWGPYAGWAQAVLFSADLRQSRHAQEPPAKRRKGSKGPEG

## COc1cc(NC(=O)[C@H]2CC[C@@H](n3c(=O)[nH]c4c(C(=O)NCCN5CCOCC5)cccc43)CC2)ccc1C [Example 272, N-[2-(Morpholin-4-yl)ethyl]-2-oxo-1-[cis-4-[(3-methoxy-4-methylphenyl)carbamoyl]cyclohexyl]-2,3-dihydro-1H-1,3-benzodiazole-4-carboxamide]
OGG1
  IC50: 0.00411 µM
MLE12 cells
  IC50: 27.1 µM
CCL2
  EC50: 35.7 µM

## COc1cc(NC(=O)[C@H]2CC[C@@H](n3c(=O)[nH]c4c(C(=O)NCC5CCCO5)cccc43)CC2)ccc1C (stereo partly drawn) [Example 273, 2-Oxo-N-[(oxolan-2-yl)methyl]-1-[cis-4-[(3-methoxy-4-methylphenyl)carbamoyl]cyclohexyl]-2,3-dihydro-1H-1,3-benzodiazole-4-carboxamide]
OGG1
  IC50: 0.0175 µM
MLE12 cells
  IC50: 19.2 µM
CCL2
  EC50: 32.6 µM

## COc1cc(NC(=O)[C@H]2CC[C@@H](n3c(=O)[nH]c4c(C(=O)N5CCNC(C(F)(F)F)C5)cccc43)CC2)ccc1C (stereo partly drawn) [Example 274, Cis-N-(3-methoxy-4-methylphenyl)-4-{2-oxo-4-[3-(trifluoromethyl)piperazine-1-carbonyl]-2,3-dihydro-1H-1,3-benzodiazol-1-yl}cyclohexane-1-carboxamide]
OGG1
  IC50: 0.0921 µM
MLE12 cells
  IC50: 18.1 µM
CCL2
  EC50: 39 µM

## COc1cc(NC(=O)[C@H]2CC[C@@H](n3c(=O)[nH]c4c(C(=O)NCc5ncccn5)cccc43)CC2)ccc1C [Example 276, 2-Oxo-N-[(pyrimidin-2-yl)methyl]-1-[cis-4-[(3-methoxy-4-methylphenyl)carbamoyl]cyclohexyl]-2,3-dihydro-1H-1,3-benzodiazole-4-carboxamide]
OGG1
  IC50: 0.0029 µM
MLE12 cells
  IC50: 16.9 µM
CCL2
  EC50: 54 µM

## COc1cc(NC(=O)[C@H]2CC[C@@H](n3c(=O)[nH]c4c(C(=O)N(C)C5CCN(C)C5)cccc43)CC2)ccc1C (stereo partly drawn) [Example 277, N-Methyl-N-(1-methylpyrrolidin-3-yl)-2-oxo-1-[cis-4-[(3-methoxy-4-methylphenyl)carbamoyl]cyclohexyl]-2,3-dihydro-1H-1,3-benzodiazole-4-carboxamide]
OGG1
  IC50: 0.0482 µM
MLE12 cells
  IC50: 15 µM
CCL2
  EC50: 28.6 µM

## COc1cc(NC(=O)[C@H]2CC[C@@H](n3c(=O)[nH]c4c(NCCN(C)C)cccc43)CC2)ccc1C [Example 280, Cis-4-(4-{[2-(dimethylamino)ethyl]amino}-2-oxo-2,3-dihydro-1H-1,3-benzodiazol-1-yl)-N-(3-methoxy-4-methylphenyl)cyclohexane-1-carboxamide]
OGG1
  IC50: 0.0275 µM
MLE12 cells
  IC50: 16.6 µM
CCL2
  EC50: 24.7 µM

## COc1cc(NC(=O)[C@H]2CC[C@@H](n3c(=O)[nH]c4c(N5CCC(NC(=O)OC(C)(C)C)C5)cccc43)CC2)ccc1C (stereo partly drawn) [Example 281, tert-Butyl N-(1-{2-oxo-1-[cis-4-[(3-methoxy-4-methylphenyl)carbamoyl]cyclohexyl]-2,3-dihydro-1H-1,3-benzodiazol-4-yl}pyrrolidin-3-yl)carbamate]
OGG1
  IC50: 0.149 µM
MLE12 cells
  IC50: 1.83 µM
CCL2
  EC50: 8.83 µM

## COc1cc(NC(=O)[C@H]2CC[C@@H](n3c(=O)[nH]c4c(N5CCC(N)C5)cccc43)CC2)ccc1C (stereo partly drawn) [Example 282, Cis-4-[4-(3-aminopyrrolidin-1-yl)-2-oxo-2,3-dihydro-1H-1,3-benzodiazol-1-yl]-N-(3-methoxy-4-methylphenyl)cyclohexane-1-carboxamide]
OGG1
  IC50: 0.0101 µM
MLE12 cells
  IC50: 27.5 µM
CCL2
  EC50: 28.6 µM

## COc1cc(NC(=O)[C@H]2CC[C@@H](n3c(=O)[nH]c4c(NC(=O)CN(C)C)cccc43)CC2)ccc1C [Example 283, Cis-4-{4-[2-(dimethylamino)acetamido]-2-oxo-2,3-dihydro-1H-1,3-benzodiazol-1-yl}-N-(3-methoxy-4-methylphenyl)cyclohexane-1-carboxamide]
OGG1
  IC50: 0.014 µM
MLE12 cells
  IC50: 19.8 µM
CCL2
  EC50: 30.8 µM

## COc1cc(NC(=O)[C@H]2CC[C@@H](n3c(=O)[nH]c4c(NC(=O)CN5CCOCC5)cccc43)CC2)ccc1C [Example 285, Cis-N-(3-methoxy-4-methylphenyl)-4-{4-[2-(morpholin-4-yl)acetamido]-2-oxo-2,3-dihydro-1H-1,3-benzodiazol-1-yl}cyclohexane-1-carboxamide]
OGG1
  IC50: 0.0451 µM
MLE12 cells
  IC50: 15.9 µM
CCL2
  EC50: > 33 µM

## COc1cc(NC(=O)[C@H]2CC[C@@H](n3c(=O)[nH]c4c(NC(=O)[C@@H]5C[C@@H](O)CN5)cccc43)CC2)ccc1C [Example 286, (2S,4R)-4-Hydroxy-N-{2-oxo-1-[cis-4-[(3-methoxy-4-methylphenyl)carbamoyl]cyclohexyl]-2,3-dihydro-1H-1,3-benzodiazol-4-yl}pyrrolidine-2-carboxamide]
OGG1
  IC50: 0.0181 µM
MLE12 cells
  IC50: 20.3 µM
CCL2
  EC50: > 33 µM

## COc1cc(NC(=O)[C@H]2CC[C@@H](n3c(=O)[nH]c4c(NC(=O)C5CNCCO5)cccc43)CC2)ccc1C (stereo partly drawn) [Example 289, N-{2-Oxo-1-[cis-4-[(3-methoxy-4-methylphenyl)carbamoyl]cyclohexyl]-2,3-dihydro-1H-1,3-benzodiazol-4-yl}morpholine-2-carboxamide]
OGG1
  IC50: 0.0517 µM
MLE12 cells
  IC50: 24.5 µM
CCL2
  EC50: 32.1 µM

## COc1cc(NC(=O)[C@H]2CC[C@@H](n3c(=O)[nH]c4c(N5CC[C@H](N(C)C)C5)cccc43)CC2)ccc1C [Example 295, Cis-4-{4-[(3S)-3-(dimethylamino)pyrrolidin-1-yl]-2-oxo-2,3-dihydro-1H-1,3-benzodiazol-1-yl}-N-(3-methoxy-4-methylphenyl)cyclohexane-1-carboxamide]
OGG1
  IC50: 0.00962 µM
MLE12 cells
  IC50: 10.4 µM
CCL2
  EC50: 11.1 µM

## COc1cc(NC(=O)[C@H]2CC[C@@H](n3c(=O)[nH]c4c(N(C)C5CCN(C)C5)cccc43)CC2)ccc1C (stereo partly drawn) [Example 296, Cis-N-(3-Methoxy-4-methylphenyl)-4-{4-[methyl(1-methylpyrrolidin-3-yl)amino]-2-oxo-2,3-dihydro-1H-1,3-benzodiazol-1-yl}cyclohexane-1-carboxamide]
OGG1
  IC50: 0.0286 µM
MLE12 cells
  IC50: 13.5 µM
CCL2
  EC50: 10.5 µM

## CNCCN(C)c1cccc2c1[nH]c(=O)n2[C@H]1CC[C@@H](C(=O)Nc2ccc(C)c(OC)c2)CC1 [Example 297, Cis-N-(3-methoxy-4-methylphenyl)-4-(4-{methyl[2-(methylamino)ethyl]amino}-2-oxo-2,3-dihydro-1H-1,3-benzodiazol-1-yl)cyclohexane-1-carboxamide]
OGG1
  IC50: 0.00807 µM
MLE12 cells
  IC50: 28.9 µM
CCL2
  EC50: 30.8 µM

## COc1cc(NC(=O)[C@H]2CC[C@@H](n3c(=O)[nH]c4c(N(C)CCN)cccc43)CC2)ccc1C [Example 298, Cis-4-{4-[(2-aminoethyl)(methyl)amino]-2-oxo-2,3-dihydro-1H-1,3-benzodiazol-1-yl}-N-(3-methoxy-4-methylphenyl)cyclohexane-1-carboxamide]
OGG1
  IC50: 0.012 µM
MLE12 cells
  IC50: 29.2 µM
CCL2
  EC50: 36.6 µM

## COc1cc(NC(=O)[C@H]2CC[C@@H](n3c(=O)[nH]c4c(NC(=O)c5cc[nH]n5)cccc43)CC2)ccc1C [Example 299, N-{2-Oxo-1-[cis-4-[(3-methoxy-4-methylphenyl)carbamoyl]cyclohexyl]-2,3-dihydro-1H-1,3-benzodiazol-4-yl}-1H-pyrazole-3-carboxamide]
OGG1
  IC50: 0.0272 µM
MLE12 cells
  IC50: 10.2 µM
CCL2
  EC50: 31.7 µM

## COc1cc(NC(=O)[C@H]2CC[C@@H](n3c(=O)[nH]c4c(NC(=O)c5cc(C)on5)cccc43)CC2)ccc1C [Example 300, 5-Methyl-N-{2-oxo-1-[cis-4-[(3-methoxy-4-methylphenyl)carbamoyl]cyclohexyl]-2,3-dihydro-1H-1,3-benzodiazol-4-yl}-1,2-oxazole-3-carboxamide]
OGG1
  IC50: 0.0099 µM
MLE12 cells
  IC50: 1.58 µM
CCL2
  EC50: 2.11 µM

## COc1cc(NC(=O)[C@H]2CC[C@@H](n3c(=O)[nH]c4c(NC(=O)c5cnco5)cccc43)CC2)ccc1C [Example 301, N-{2-Oxo-1-[cis-4-[(3-methoxy-4-methylphenyl)carbamoyl]cyclohexyl]-2,3-dihydro-1H-1,3-benzodiazol-4-yl}-1,3-oxazole-5-carboxamide]
OGG1
  IC50: 0.00691 µM
MLE12 cells
  IC50: 16.2 µM
CCL2
  EC50: 43 µM

## COc1cc(NC(=O)[C@H]2CC[C@@H](n3c(=O)[nH]c4c(N(C)CCCN)cccc43)CC2)ccc1C [Example 302, Cis-4-{4-[(3-aminopropyl)(methyl)amino]-2-oxo-2,3-dihydro-1H-1,3-benzodiazol-1-yl}-N-(3-methoxy-4-methylphenyl)cyclohexane-1-carboxamide]
OGG1
  IC50: 0.0164 µM
MLE12 cells
  IC50: 14.4 µM
CCL2
  EC50: 27.2 µM

## COc1cc(NC(=O)[C@H]2CC[C@@H](n3c(=O)[nH]c4c(OCCN(C)C)cccc43)CC2)ccc1C [Example 304, Cis-4-{4-[2-(dimethylamino)ethoxy]-2-oxo-2,3-dihydro-1H-1,3-benzodiazol-1-yl}-N-(3-methoxy-4-methylphenyl)cyclohexane-1-carboxamide]
OGG1
  IC50: 0.0038 µM
MLE12 cells
  IC50: 8.27 µM
CCL2
  EC50: 10.6 µM

## COc1cc(NC(=O)[C@H]2CC[C@@H](n3c(=O)[nH]c4c(N(C)CCCNC(=O)OC(C)(C)C)cccc43)CC2)ccc1C [Example 305, tert-Butyl N-{3-[methyl({2-oxo-1-[cis-4-[(3-methoxy-4-methylphenyl)carbamoyl]cyclohexyl]-2,3-dihydro-1H-1,3-benzodiazol-4-yl})amino]propyl}carbamate]
OGG1
  IC50: 0.251 µM
MLE12 cells
  IC50: 4.88 µM
CCL2
  EC50: 8.11 µM

Source: patent US11970474B2, “Substituted benzodiazoles and use thereof in therapy” (THOMAS HELLEDAYS STIFTELSE FÖR MEDICINSK FORSKNING, priority 2018, dated 2024)
